The assay has as its system IL-6 production from A549 cells. Description: Inhibitory activity on IL-6 production from A549 cells (TNF-α stimulated, ELISA). Format: cell-based. As to conditions: A549 cells (human lung epithelial cell line), TNF-α stimulation, 24 hours incubation, IL-6 in supernatant by ELISA; read-out: 50% inhibitory concentration (IC50) on IL-6 production. How it is done: According to following experiments, it is confirmed that the compound of the present invention has an inhibitory activity on IL-6 production. • (1) The Measurement of an Inhibitory Activity on IL-6 Production from A549 Cells Method:
1.5×10^4 of A549 cells (human lung epithelial cell line) were suspended in 100 μL of Dulbecco's Modified Eagle Medium (DMEM) containing 0.5% fetal bovine serum (abbreviated as FBS) and incubated for a day and night in 96 well-microplate. 20 μL of the test compound dissolved in dimethylsulfoxide (DMSO) at various concentrations and 80 μl of tumor necrosis factor-α (TNF-α (Genzyme Co., cat. No. TNF-H)) dissolved in serum-free DMEM at the concentration of 12.5 ng/mL were added thereto. After the incubation for 24 hours, the supernatant (100 μL) was collected to measure the amount of IL-6 being produced using enzyme linked immuno […] assay (ELISA) (R&D Systems Co., cat. No. D6050). Then the inhibitory activity of the test compound was calculated and the 50% inhibitory concentration (IC50) was determined.

`O=C(CCCCCNC(=O)c1ccc(-c2ccccc2)cc1)NO` [Example 2]: the IC50 stood at 180 nM.

For the origin of these results see patent US20050119305A1, “Il-6 production inhibitors” (priority 2001, published 2005).
